Values quoted from earlier work, collected in the PKSmart pharmacokinetics tables (Seal et al. 2025).

Assay: Lombardo, Berellini, Obach 2018, Drug Metab Dispos 46:1466, doi 10.1124/dmd.118.082966
Conditions: human; for MRT / Vd / clearance / half-life: in vivo, iv; for fraction unbound: plasma

SMILES | MRT | Vd | clearance | half-life | fraction unbound
O=C(O)c1cc(N=Nc2ccc(O)c(C(=O)O)c2)ccc1O | 0.97 h | 0.07 L/kg | 1.2 mL/min/kg | 0.9 h | 0.01
CN(C)C(=O)Oc1cccc([N+](C)(C)C)c1 | 1.3 h | 0.74 L/kg | 9.2 mL/min/kg | 1.3 h | 
CCOc1ccc2ccccc2c1C(=O)NC1C(=O)N2C(C(=O)O)C(C)(C)S[C@H]12 (stereo partly specified) | 1.1 h | 0.22 L/kg | 3.3 mL/min/kg | 0.7 h | 0.13
O=c1[nH]c(=O)n([C@@H]2O[C@H](CO)[C@H](O)[C@H](O)[C@H]2O)cc1F | 3.95 h | 0.33 L/kg | 1.38 mL/min/kg | 4.21 h | 
O=C(NCCN1CCOCC1)Nc1nc2ccc(Sc3nnc4ccc(-c5ccc(F)cc5)nn34)cc2s1 | 8.19 h | 4.1 L/kg | 8.34 mL/min/kg | 19.4 h | 
CC(C)OC(=O)CCC/C=C/C[C@@H]1[C@@H](CC[C@@H](O)CCc2ccccc2)[C@H](O)C[C@@H]1O |  |  | 6.7 mL/min/kg | 0.28 h | 0.1
OCCN1CCN(CCCN2c3ccccc3Sc3ccc(Cl)cc32)CC1 | 11 h | 18 L/kg | 27 mL/min/kg | 9.4 h | 0.07
Cn1cc[nH]c1=S | 3.8 h | 0.86 L/kg | 3.7 mL/min/kg | 2.4 h | 
CCN1CCN(C(=O)NC(C(=O)N[C@]2(OC)C(=O)N3C(C(=O)O)=C(CSc4nnnn4C)CS[C@@H]32)[C@H](C)O)C(=O)C1=O (stereo partly specified) | 2.9 h | 0.19 L/kg | 1.1 mL/min/kg | 1.9 h | 
O=P(O)(O)OC(Cn1cncn1)(Cn1cncn1)c1ccc(F)cc1F | 2 h | 0.15 L/kg | 1.3 mL/min/kg | 2.1 h | 0.042
COc1cc(C(=O)C(=O)N2CCCCC2C(=O)OC(CCCc2cccnc2)CCCc2cccnc2)cc(OC)c1OC (stereo unspecified) | 2.62 h | 1.34 L/kg | 8.5 mL/min/kg | 1.1 h | 
O=S(=O)(O)c1cc(O)ccc1O | 2.41 h | 0.12 L/kg | 0.87 mL/min/kg | 2.01 h | 
C#CCN(C)C(C)Cc1ccccc1 (stereo unspecified) | 1.6 h | 1.9 L/kg | 20 mL/min/kg | 1.3 h | 
CON=C(C(=O)NC1C(=O)N2C(C(=O)O)=C(CN3C=CN4NC=CC=C34)CS[C@H]12)c1nsc(N)n1 (stereo partly specified) | 2 h | 0.24 L/kg | 2.1 mL/min/kg | 1.7 h | 0.74
COC1C(=O)C(C)C[C@H](C)/C=C/C=C/C=C(\C)[C@@H](OC)C[C@@H]2CC[C@@H](C)[C@@](O)(O2)C(=O)C(=O)N2CCCCC2C(=O)O[C@H]([C@H](C)C[C@@H]2CC[C@H](n3cnnn3)[C@H](OC)C2)CC(=O)C(C)=CC(C)[C@H]1O (stereo partly specified) | 33 h | 1.3 L/kg | 0.67 mL/min/kg | 35 h | 0.26
CC[C@@H](CO)NC(=O)C1C=C2c3cccc4[nH]cc(c34)C[C@H]2N(C)C1 (stereo partly specified) | 2.25 h | 0.96 L/kg | 7.18 mL/min/kg | 1.85 h | 
COc1ccc2c(c1)N(C[C@H](C)CN(C)C)c1ccccc1S2 | 21 h | 12 L/kg | 9.9 mL/min/kg | 30 h | 
CCN(CC)CCNC(=O)c1cc(Br)c(N)cc1OC | 4 h | 3.1 L/kg | 13 mL/min/kg | 2.9 h | 0.6

SMILES | MRT | Vd | clearance | half-life | fraction unbound
CC(C)(N)CC(=O)NC1CCc2ccccc2N(Cc2ccc(-c3ccccc3-c3nnn[nH]3)cc2)C1=O (stereo unspecified) | 1.1 h | 0.2 L/kg | 3.05 mL/min/kg | 3.8 h | 0.06
CN(C)CC/C=C1\c2ccccc2COc2ccccc21 | 15 h | 12 L/kg | 14 mL/min/kg | 15 h | 
CCc1nc(N)nc(N)c1-c1ccc(Cl)cc1 | 140 h | 0.43 L/kg | 0.052 mL/min/kg | 140 h | 0.095
O=C1OC2(c3ccc(O)cc3Oc3cc(O)ccc32)c2ccccc21 | 1.8 h | 0.14 L/kg | 1.3 mL/min/kg | 1.6 h | 0.11
NCCC(O)C(=O)N[C@@H]1C[C@H](N)[C@@H](O[C@H]2O[C@H](CN)CC[C@H]2N)[C@H](O)[C@H]1O[C@H]1O[C@H](CO)[C@@H](O)[C@H](N)[C@H]1O (stereo partly specified) | 2.73 h | 0.21 L/kg | 1.28 mL/min/kg | 2.46 h | 
NCCCCC(NC1CCc2ccccc2N(CC(=O)O)C1=O)C(=O)O (stereo unspecified) | 29.3 h | 1.98 L/kg | 1.23 mL/min/kg |  | 
O=S(=O)(O)CCS | 0.52 h | 0.65 L/kg | 20.5 mL/min/kg | 0.36 h | 
C[C@@H](O[C@H]1OCCN(Cc2n[nH]c(=O)[nH]2)[C@H]1c1ccc(F)cc1)c1cc(C(F)(F)F)cc(C(F)(F)F)c1 |  | 0.94 L/kg |  | 13 h | 
CCOC(=O)[C@]1(c2ccccc2)CCC=C[C@H]1N(C)C | 4.2 h | 4 L/kg | 16 mL/min/kg | 5 h | 0.21
N/N=c1\[nH]ncc2ccccc12 | 0.29 h | 1.5 L/kg | 85 mL/min/kg | 1 h | 0.12
N=C(N)NC(=O)c1cnn(-c2cccc3ncccc23)c1C1CC1 | 1.3 h | 1.7 L/kg |  | 2 h | 
COC(=O)Nc1nc2cc(C(=O)c3ccccc3)ccc2[nH]1 | 1.3 h | 1.2 L/kg | 15 mL/min/kg | 1.1 h | 
CC#C[C@]1(O)CC[C@H]2C3=C(C4=C(CC3)CC(=O)CC4)C(c3ccc(N(C)C)cc3)C[C@@]21C (stereo partly specified) | 15.7 h | 0.45 L/kg | 0.5 mL/min/kg | 16.6 h | 0.02
OCCN1CCN(CC/C=C2/c3ccccc3Sc3ccc(C(F)(F)F)cc32)CC1 |  |  | 4.14 mL/min/kg | 34.2 h | 
Cc1c(F)c(N2CCN[C@H](C)C2)cc2c1c(=O)c(C(=O)O)cn2C1CC1 |  |  | 5.9 mL/min/kg | 9.2 h | 0.82
CC(=O)N(O)CCCCCNC(=O)CCC(=O)N(O)CCCCCNC(=O)CCC(=O)N(O)CCCCCN | 2.7 h | 1.35 L/kg | 8.33 mL/min/kg | 3.05 h | 
O[C@@H](CNC[C@H](O)[C@H]1CCc2cc(F)ccc2O1)[C@@H]1CCc2cc(F)ccc2O1 | 13 h | 11 L/kg | 14 mL/min/kg | 10 h | 0.02
Cc1nc(=O)c(C#N)c(NCc2cccnc2)[nH]1 | 1.1 h | 0.39 L/kg | 5.8 mL/min/kg | 0.95 h | 0.05
